Assays:
[1] = molecular target: T1, HDAC9 (Homo sapiens, UniProt Q9UKV0); test: HDAC selectivity profile (Reaction Biology); format: biochemical; settings: no inhibitor control as 100%, read-out: % Enzyme activity HDAC9
T1 construct: purchased Reaction Biology
Protocol: (§1) The reactions were performed by Reaction Biology using a protease-coupled assay with fluorogenic substrates where, after deacetylation by the HDAC and subsequent proteolytic digest, the free fluorophore 7-amino-4-methyl coumarin (AMC) can be quantified.[60] The following substrates were used for activity assays: HDACs 1, 2, 3, and 6: fluorogenic tetrapeptide from p53 residues 379–382 (RHKK(Ac) AMC); HDACs 4, 5, 7, 9, and 11: fluorogenic HDAC class2a substrate (trifluoroacetyl lysine); HDAC8: twice acetylated fluorogenic tetrapeptide from p53 residues 379–382 (RHK(Ac) K(Ac) AMC); HDAC10: Ac-spermidine-AMC. Data are given as % residual activity compared with the uninhibited control reaction.

[2] = molecular target: T2, HDAC10 (Homo sapiens, UniProt Q969S8); test: HDAC selectivity profile (Reaction Biology); format: biochemical; settings: no inhibitor control as 100%, read-out: % Enzyme activity HDAC10
T2 construct: purchased Reaction Biology
Protocol: as §1

[3] = molecular target: T3, HDAC11 (Homo sapiens, UniProt Q96DB2); test: HDAC selectivity profile (Reaction Biology); format: biochemical; settings: no inhibitor control as 100%
T3 construct: purchased Reaction Biology
T3 sequence (Q96DB2 1-347): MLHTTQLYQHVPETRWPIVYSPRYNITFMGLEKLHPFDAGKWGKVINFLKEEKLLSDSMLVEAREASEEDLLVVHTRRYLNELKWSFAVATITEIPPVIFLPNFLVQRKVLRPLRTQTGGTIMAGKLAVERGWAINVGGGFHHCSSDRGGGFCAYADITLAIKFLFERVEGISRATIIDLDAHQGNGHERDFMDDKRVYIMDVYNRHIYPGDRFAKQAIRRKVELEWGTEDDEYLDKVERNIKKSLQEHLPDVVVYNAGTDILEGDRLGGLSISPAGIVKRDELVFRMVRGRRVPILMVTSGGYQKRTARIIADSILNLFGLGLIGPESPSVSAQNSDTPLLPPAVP
Protocol: as §1

[4] = molecular target: T4, HDAC8 (Homo sapiens, UniProt Q9BY41); test: HDAC selectivity profile (Reaction Biology); format: biochemical; settings: no inhibitor control as 100%, read-out: % Enzyme activity HDAC8
T4 construct: purchased Reaction Biology
Protocol: as §1

[5] = molecular target: T5, HDAC6 (Homo sapiens, UniProt Q9UBN7); test: HDAC selectivity profile (Reaction Biology); format: biochemical; settings: no inhibitor control as 100%, read-out: % Enzyme activity HDAC6
T5 construct: purchased Reaction Biology
Protocol: as §1

[6] = molecular target: T6, HDAC7 (Homo sapiens, UniProt Q8WUI4); test: HDAC selectivity profile (Reaction Biology); format: biochemical; settings: no inhibitor control as 100%, read-out: % Enzyme activity HDAC7
T6 construct: purchased Reaction Biology
Protocol: as §1

[7] = molecular target: T7, HDAC5 (Homo sapiens, UniProt Q9UQL6); test: HDAC selectivity profile (Reaction Biology); format: biochemical; settings: no inhibitor control as 100%, read-out: % Enzyme activity HDAC5
T7 construct: purchased Reaction Biology
Protocol: as §1

[8] = molecular target: T8, HDAC4 (Homo sapiens, UniProt P56524); test: HDAC selectivity profile (Reaction Biology); format: biochemical; settings: no inhibitor control as 100%, read-out: % Enzyme activity HDAC4
T8 construct: purchased Reaction Biology
Protocol: as §1

[9] = system: zinc-dependent HDACs (HDAC1–11); test: HDAC selectivity profile, whole panel; format: biochemical, human; settings: 1 and 10 μM
Protocol: as §1

[10] = molecular target: HDAC3 (Homo sapiens, UniProt O15379); test: HDAC selectivity profile (Reaction Biology); format: biochemical; set-up: purchased Reaction Biology; settings: no inhibitor control as 100%
Protocol: as §1

[11] = molecular target: HDAC1 (Homo sapiens, UniProt Q13547); test: HDAC selectivity profile (Reaction Biology); format: biochemical; set-up: purchased Reaction Biology; settings: no inhibitor control as 100%, read-out: % Enzyme activity HDAC1
Protocol: as §1

[12] = molecular target: HDAC2 (Homo sapiens, UniProt Q92769); test: HDAC selectivity profile (Reaction Biology); format: biochemical; set-up: purchased Reaction Biology; settings: no inhibitor control as 100%, read-out: % Enzyme activity HDAC2
Protocol: as §1

Sequence of HDAC3 (O15379 whole entry): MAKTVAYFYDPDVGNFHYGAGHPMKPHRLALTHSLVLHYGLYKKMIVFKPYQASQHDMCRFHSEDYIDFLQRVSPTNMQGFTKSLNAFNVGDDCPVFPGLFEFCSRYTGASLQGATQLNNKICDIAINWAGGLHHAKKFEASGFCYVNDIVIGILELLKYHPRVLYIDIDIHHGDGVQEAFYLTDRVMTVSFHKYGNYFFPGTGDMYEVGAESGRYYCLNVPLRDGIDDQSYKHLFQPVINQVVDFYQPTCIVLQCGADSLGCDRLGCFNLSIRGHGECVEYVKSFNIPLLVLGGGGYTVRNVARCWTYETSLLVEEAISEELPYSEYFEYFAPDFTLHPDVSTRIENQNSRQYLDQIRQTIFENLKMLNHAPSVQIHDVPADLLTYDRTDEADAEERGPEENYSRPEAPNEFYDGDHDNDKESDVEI
Sequence of HDAC3 (Q9Y618 395-489 partner limits assumed): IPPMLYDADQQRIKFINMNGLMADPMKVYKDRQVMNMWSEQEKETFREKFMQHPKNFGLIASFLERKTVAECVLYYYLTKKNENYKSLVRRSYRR
T7 sequence (Q9UQL6 whole entry): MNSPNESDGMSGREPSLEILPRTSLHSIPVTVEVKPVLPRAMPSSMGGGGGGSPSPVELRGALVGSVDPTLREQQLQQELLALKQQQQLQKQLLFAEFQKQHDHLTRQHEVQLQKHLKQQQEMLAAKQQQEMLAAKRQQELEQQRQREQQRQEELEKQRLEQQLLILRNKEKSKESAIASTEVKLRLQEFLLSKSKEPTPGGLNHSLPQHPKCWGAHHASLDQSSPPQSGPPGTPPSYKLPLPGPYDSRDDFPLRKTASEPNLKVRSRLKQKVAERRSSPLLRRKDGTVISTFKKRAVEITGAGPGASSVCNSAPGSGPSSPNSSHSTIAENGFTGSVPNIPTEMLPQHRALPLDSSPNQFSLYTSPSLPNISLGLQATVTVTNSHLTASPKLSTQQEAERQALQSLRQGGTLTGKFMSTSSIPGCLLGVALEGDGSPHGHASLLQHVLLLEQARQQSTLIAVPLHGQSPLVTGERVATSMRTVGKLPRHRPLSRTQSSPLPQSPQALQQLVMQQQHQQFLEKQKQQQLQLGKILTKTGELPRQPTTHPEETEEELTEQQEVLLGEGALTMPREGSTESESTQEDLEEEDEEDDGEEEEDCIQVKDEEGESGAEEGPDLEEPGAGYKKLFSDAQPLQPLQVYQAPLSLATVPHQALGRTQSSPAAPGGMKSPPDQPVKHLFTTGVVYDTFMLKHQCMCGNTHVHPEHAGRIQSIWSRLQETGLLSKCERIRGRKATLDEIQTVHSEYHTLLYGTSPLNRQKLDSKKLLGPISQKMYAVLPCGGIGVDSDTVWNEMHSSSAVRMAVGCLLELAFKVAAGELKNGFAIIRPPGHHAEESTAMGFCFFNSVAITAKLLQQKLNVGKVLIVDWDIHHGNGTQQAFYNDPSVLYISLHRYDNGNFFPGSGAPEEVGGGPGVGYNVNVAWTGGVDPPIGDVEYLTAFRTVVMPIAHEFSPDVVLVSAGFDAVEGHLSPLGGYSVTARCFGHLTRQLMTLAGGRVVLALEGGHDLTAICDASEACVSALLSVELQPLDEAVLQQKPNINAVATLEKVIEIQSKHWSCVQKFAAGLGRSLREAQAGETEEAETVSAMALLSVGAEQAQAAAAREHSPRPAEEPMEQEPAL
Sequence of HDAC2 (Q92769 whole entry): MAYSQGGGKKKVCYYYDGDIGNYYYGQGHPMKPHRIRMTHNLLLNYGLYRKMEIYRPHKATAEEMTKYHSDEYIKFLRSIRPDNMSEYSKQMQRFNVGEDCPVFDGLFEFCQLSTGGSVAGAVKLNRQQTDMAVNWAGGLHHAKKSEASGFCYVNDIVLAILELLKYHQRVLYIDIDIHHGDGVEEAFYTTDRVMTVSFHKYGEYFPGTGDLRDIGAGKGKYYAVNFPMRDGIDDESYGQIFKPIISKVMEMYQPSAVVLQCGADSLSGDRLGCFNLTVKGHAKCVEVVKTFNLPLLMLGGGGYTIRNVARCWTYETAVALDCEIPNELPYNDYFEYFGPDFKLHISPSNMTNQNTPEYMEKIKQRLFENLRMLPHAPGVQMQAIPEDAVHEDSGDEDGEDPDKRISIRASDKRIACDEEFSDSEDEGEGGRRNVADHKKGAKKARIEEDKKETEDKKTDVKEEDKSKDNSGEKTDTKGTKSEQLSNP
T5 sequence (Q9UBN7 whole entry): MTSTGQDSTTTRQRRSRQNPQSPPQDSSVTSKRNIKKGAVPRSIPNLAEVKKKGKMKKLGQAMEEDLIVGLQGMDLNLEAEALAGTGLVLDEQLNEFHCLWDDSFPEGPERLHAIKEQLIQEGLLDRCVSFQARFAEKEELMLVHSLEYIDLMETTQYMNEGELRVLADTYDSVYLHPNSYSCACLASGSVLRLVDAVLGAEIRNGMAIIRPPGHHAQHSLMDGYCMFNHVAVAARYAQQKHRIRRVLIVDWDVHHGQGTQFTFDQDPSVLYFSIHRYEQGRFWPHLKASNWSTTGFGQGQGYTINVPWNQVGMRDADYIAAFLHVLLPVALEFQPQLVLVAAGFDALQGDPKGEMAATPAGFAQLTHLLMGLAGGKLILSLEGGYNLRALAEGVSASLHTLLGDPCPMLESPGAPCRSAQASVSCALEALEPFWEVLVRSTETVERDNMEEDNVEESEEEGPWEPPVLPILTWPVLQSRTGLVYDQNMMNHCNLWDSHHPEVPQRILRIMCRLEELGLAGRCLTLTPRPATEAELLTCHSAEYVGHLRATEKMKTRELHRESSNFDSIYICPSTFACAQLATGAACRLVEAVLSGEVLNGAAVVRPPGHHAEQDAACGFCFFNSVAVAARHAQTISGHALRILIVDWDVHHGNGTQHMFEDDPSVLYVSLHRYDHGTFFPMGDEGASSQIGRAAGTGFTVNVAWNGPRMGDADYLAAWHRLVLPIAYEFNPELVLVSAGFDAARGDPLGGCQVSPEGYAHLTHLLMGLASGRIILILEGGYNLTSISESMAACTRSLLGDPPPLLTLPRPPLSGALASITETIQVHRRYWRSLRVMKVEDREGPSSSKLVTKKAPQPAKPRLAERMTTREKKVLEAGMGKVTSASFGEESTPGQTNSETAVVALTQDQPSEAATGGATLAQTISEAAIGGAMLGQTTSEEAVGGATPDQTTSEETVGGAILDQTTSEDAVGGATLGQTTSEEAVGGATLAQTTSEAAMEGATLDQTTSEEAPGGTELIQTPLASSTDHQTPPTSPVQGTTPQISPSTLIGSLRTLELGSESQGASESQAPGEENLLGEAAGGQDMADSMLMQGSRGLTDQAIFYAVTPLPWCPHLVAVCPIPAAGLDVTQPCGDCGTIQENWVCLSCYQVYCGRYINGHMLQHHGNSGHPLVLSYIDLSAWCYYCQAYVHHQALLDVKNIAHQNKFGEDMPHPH
T1 sequence (Q9UKV0 whole entry): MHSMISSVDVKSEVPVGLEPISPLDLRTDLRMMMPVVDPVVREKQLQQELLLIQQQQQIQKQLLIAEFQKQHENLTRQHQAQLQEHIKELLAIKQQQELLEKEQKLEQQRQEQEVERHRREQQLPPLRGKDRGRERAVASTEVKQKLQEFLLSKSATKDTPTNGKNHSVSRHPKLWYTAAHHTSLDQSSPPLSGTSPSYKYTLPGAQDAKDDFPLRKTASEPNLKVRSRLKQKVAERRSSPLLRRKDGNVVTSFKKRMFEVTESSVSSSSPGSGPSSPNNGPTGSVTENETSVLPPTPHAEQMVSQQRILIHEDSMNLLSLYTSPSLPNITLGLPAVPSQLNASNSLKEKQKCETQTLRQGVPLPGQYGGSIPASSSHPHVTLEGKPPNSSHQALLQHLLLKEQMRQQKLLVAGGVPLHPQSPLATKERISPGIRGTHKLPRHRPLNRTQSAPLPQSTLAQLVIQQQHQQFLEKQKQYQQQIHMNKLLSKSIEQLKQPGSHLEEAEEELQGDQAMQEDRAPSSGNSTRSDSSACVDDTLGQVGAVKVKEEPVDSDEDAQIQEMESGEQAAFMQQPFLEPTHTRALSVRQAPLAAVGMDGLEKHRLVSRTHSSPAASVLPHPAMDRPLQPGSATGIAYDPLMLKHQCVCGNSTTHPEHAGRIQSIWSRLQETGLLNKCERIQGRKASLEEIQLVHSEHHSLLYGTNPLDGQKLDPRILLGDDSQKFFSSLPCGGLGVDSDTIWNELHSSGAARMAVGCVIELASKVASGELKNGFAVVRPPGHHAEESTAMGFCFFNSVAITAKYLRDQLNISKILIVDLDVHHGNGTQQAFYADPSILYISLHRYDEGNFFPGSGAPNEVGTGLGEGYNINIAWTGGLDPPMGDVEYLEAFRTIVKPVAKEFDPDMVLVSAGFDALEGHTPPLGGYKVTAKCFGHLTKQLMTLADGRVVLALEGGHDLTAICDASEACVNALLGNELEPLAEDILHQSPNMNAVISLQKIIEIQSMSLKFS
Sequence of HDAC1 (Q13547 whole entry): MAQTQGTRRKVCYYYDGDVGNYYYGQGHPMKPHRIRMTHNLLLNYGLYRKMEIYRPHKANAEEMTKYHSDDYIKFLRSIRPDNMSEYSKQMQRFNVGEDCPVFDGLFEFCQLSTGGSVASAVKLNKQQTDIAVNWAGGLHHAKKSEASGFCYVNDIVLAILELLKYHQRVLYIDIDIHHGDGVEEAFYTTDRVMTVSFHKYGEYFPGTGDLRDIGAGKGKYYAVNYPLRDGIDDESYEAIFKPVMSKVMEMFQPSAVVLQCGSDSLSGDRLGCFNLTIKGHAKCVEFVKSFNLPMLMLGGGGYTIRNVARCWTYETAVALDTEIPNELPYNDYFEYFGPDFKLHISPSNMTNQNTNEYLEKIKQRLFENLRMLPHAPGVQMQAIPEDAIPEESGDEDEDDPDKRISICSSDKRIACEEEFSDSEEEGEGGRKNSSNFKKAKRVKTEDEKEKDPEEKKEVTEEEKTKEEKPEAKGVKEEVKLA

For Cn1cc(-c2ccc(C(=O)Nc3cc(-c4ccccc4)ccc3N)nc2)c2cc[nH]c2c1=O [NB512], the remaining activity at 1 µM ([1]; 1 µM NB512) was 96.2%, the remaining activity at 10 µM ([1]; 10 µM NB512) was 85% and the remaining activity at 1 µM ([2]; 1 µM NB512) was 98.1%. The remaining activity at 10 µM ([2]; 10 µM NB512) was 98.6%, the remaining activity at 1 µM ([3]; 1 µM NB512, read-out: % Enzyme activity HDAC11) was 97.7% and the “% Enzyme activity HDAC11” value ([3]; 10 µM NB512) was 60%. The remaining activity at 10 µM ([3]; 10 µM NB512, read-out: % Enzyme activity HDAC11) was 59.9%, the remaining activity at 1 µM ([4]; 1 µM NB512) was 96.4% and the remaining activity at 10 µM ([4]; 10 µM NB512) was 97.9%. The remaining activity at 1 µM ([5]; 1 µM NB512) was 100%, the remaining activity at 10 µM ([5]; 10 µM NB512) was 90.2% and the remaining activity at 1 µM ([6]; 1 µM NB512) was 101%. For the same molecule, the remaining activity at 10 µM ([6]; 10 µM NB512) was 101%, the remaining activity at 1 µM ([7]; 1 µM NB512) was 89.3% and the remaining activity at 10 µM ([7]; 10 µM NB512) was 84.1%. The remaining activity at 1 µM ([8]; 1 µM NB512) was 91.5%, the remaining activity at 10 µM ([8]; 10 µM NB512) was 82.4% and the “selectivity among zinc-dependent HDACs” value [9] was “high selectivity for HDAC1/2”. For the same molecule, the remaining activity at 1 µM ([10]; 1 µM NB512, read-out: % Enzyme activity HDAC3) was 95.5%, the “% Enzyme activity HDAC3” value ([10]; 10 µM NB512) was 76% and the remaining activity at 10 µM ([10]; 10 µM NB512, read-out: % Enzyme activity HDAC3) was 76.4%. For the same molecule, the remaining activity at 1 µM ([11]; 1 µM NB512) was 20.6%, the remaining activity at 10 µM ([11]; 10 µM NB512) was 10.3% and the remaining activity at 1 µM ([12]; 1 µM NB512) was 50.3%. For the same molecule, the remaining activity at 10 µM ([12]; 10 µM NB512) was 13.5%.

Source: paper PMC10878397, “Development of Potent Dual BET/HDAC Inhibitors via Pharmacophore Merging and Structure-Guided Optimization” (ACS Chemical Biology, 2024)
